By IC50 is commonly meant the concentration that inhibits the measured activity by half. By inhibition is commonly meant the drop in the measured response relative to a control, in per cent.

Like-named read-outs stand apart in the source and are kept apart here.

We go through 29 compounds from US5399565A, “Pyrazolidinone CCK and gastrin antagonists and pharmaceutical formulations therof” (priority 1993, dated 1995).

One assay concerns the target T1, gastrin receptor (Cavia porcellus, UniProt H0VZC5).
T1 construct: Guinea pig stomach fundus was obtained from male Hartley guinea pigs; from tissue; host or cells: stomach fundus mucosal membranes of male Hartley guinea pigs
T1 sequence (H0VZC5 1-426): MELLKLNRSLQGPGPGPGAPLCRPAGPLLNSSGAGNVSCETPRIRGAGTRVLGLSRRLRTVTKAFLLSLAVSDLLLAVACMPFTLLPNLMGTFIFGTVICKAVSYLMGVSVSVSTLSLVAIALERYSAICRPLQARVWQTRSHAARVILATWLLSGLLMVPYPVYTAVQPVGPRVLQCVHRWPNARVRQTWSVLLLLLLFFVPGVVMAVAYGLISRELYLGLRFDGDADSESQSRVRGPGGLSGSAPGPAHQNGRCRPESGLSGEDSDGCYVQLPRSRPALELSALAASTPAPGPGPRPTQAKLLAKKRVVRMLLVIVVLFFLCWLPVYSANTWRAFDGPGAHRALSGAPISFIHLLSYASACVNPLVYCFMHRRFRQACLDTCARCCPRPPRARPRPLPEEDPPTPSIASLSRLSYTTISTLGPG
Nature of the assay: Gastrin binding to guinea pig stomach mucosal membranes (125I-gastrin I). The method, then:
The method used for gastrin binding to guinea pig stomach mucosal membranes was similar to that described by Takeuchi, Speir and Johnson (Am. J. Physiol. 237(3): E284-E294, 1979). Guinea pig stomach fundus was obtained from male Hartley guinea pigs, 300-350 g, and the mucosa was scraped off with a glass slide. The mucosa was homogenized in 50 mM Tris buffer, pH 7.4, containing 1 mM phenylmethanesulfonyl fluoride using a Dounce glass homogenizer, and the suspension was centrifuged at 40,000 g for 10 min. The resulting pellet was resuspended and centrifuged once more, the final pellet was then suspended in 100 ml assay buffer per 1 guinea pig stomach to give a protein concentration of 200-300 μg/200 μl. The assay buffer consisted of 50 mM Tris buffer, pH 7.4, 5 mM MgCl2, 0.14 mg/ml bacitracin, and 1 μg/ml each of leupeptin, chymostatin, aprotinin and pepstatin. Reagent volumes for the assay were the same as those used for CCK binding to brain membranes. The radioactive ligand was 20 pM ^125 I-gastrin I, from DuPont NEN (NEX-176). The samples were incubated 3 hours at room temperature and filtered and counted as described for CCK binding to brain membranes. Compound samples were prepared and IC-50 values were determined as described for the CCK-brain receptor binding. Non-specific binding was determined using 100 nM gastrin I (human synthetic from Sigma Chemical Co.).

For assay [1], the target named is T2, peripheral type CCK receptors in rat pancreas (Rattus norvegicus, UniProt P30551).
T2 construct: Pancreas was obtained from male Sprague-Dawley rats; from tissue; host or cells: pancreas membranes of male Sprague-Dawley rats
T2 sequence (P30551 1-444): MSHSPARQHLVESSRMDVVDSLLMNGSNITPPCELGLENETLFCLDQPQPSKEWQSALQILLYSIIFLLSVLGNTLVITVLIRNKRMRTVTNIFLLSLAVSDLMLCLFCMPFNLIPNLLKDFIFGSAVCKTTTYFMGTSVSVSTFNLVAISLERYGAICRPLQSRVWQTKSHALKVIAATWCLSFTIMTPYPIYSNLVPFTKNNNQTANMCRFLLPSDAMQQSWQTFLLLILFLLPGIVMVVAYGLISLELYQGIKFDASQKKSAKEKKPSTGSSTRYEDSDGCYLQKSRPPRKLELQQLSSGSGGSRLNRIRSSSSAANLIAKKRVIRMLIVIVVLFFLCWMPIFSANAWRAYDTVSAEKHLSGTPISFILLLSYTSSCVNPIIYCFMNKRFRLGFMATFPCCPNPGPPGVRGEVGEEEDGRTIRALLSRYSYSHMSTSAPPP
In words: Binding to peripheral type CCK receptors in rat pancreas (3H-L-364,718). Particulars: for inhibition at 10 µM: read-out: Pancreas Percent Inhibition; for IC50: rat pancreas. In a few lines:
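Washed pancreatic membranes from male Sprague-Dawley rats (150-200 g) incubated 1 h at room temperature with 0.4-0.6 nM ³H-L-364,718 in 50 mM Tris pH 7.4, 5 mM MgCl2, bacitracin, 5 mM DTT. Bound radioactivity counted after filtration; nonspecific binding defined with 100 nM L-364,718; IC50 determined.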

The target in the next assay is T3, brain CCK receptor (Mus musculus, UniProt P56481).
T3 construct: from tissue; host or cells: forebrain membranes of male CF-1 mice
T3 sequence (P56481 1-453): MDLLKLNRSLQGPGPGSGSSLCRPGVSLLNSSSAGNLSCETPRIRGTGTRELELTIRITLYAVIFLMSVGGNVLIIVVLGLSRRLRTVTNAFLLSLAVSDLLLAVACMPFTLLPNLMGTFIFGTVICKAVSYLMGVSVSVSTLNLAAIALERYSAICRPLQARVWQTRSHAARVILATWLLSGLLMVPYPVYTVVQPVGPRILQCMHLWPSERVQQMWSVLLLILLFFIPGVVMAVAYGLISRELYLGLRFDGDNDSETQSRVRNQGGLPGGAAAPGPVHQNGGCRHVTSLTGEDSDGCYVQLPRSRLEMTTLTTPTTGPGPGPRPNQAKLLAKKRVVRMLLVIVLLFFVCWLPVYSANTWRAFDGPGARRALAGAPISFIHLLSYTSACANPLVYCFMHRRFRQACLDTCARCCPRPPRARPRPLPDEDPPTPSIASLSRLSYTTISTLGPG
Nature of the assay: CCK receptor binding, mouse brain membranes (125I-CCK-8 sulfate). Particulars: for inhibition at 1 µM / inhibition at 10 µM: read-out: Brain Percent Inhibition.

Where [2] appears, read: guinea pig stomach mucosal membranes, read-out: Gastrin IC50.
Setting [3] is: mouse brain membranes, read-out: Brain IC50.

As to `O=C1NN(C(=O)Nc2ccc(Br)cc2)C(c2ccccc2)C1c1cccc([N+](=O)[O-])c1` (stereo not drawn) [Example 125], the values for the IC50 on gastrin receptor (setting [2]) and at brain CCK receptor (setting [3]) were 0.59 µM and 0.1 µM, respectively. In assay [1], the inhibition at 10 µM was 42%.
As for `O=C1NN(C(=O)Nc2ccc(Br)cc2)[C@@H](c2ccccc2Cl)[C@@H]1c1ccccc1Cl` (relative stereo) [Example 133], the IC50 was determined as 0.025 µM on gastrin receptor (setting [2]), 7.9 µM in assay [1] and 0.006 µM on brain CCK receptor (setting [3]).
`O=C1NN(C(=O)Nc2ccc(Br)cc2)C(c2ccccc2)C1c1cccc2ccccc12` (stereo not drawn) [Example 134]: the 50% inhibitory concentration (IC50) at gastrin receptor (setting [2]) was determined as 0.093 µM; at brain CCK receptor (setting [3]), 0.033 µM. The inhibition at 10 µM in assay [1] was found to be 75%.
In the same order, the values of `O=C1NN(C(=O)Nc2ccc(Br)cc2)[C@@H](c2cccc(Cl)c2Cl)[C@H]1c1ccccc1` (relative stereo) [Example 117] are 1 µM, 0.4 µM and 64%.
Turning to `O=C1NN(C(=O)Nc2ccc(C(F)(F)F)cc2)C(c2ccccc2)C1c1ccccc1Cl` (stereo not drawn) [Example 130], the IC50 on gastrin receptor is 0.1 µM; on brain CCK receptor (Brain IC50, mouse brain membranes), 0.012 µM. The inhibition at 10 µM in assay [1] turned out to be 42%.
Take `O=C1NN(C(=O)Nc2ccc(Cl)c(C(F)(F)F)c2)C(c2ccccc2)C1c1ccccc1Cl` (stereo not drawn) [Example 131]: the half-inhibitory concentration (IC50) on gastrin receptor (setting [2]) was found to be 0.062 µM; at brain CCK receptor (setting [3]) it was 0.012 µM. For the same compound, the inhibition at 10 µM in assay [1] was 61%.
For `O=C1NN(C(=O)Nc2ccc(Cl)c(Cl)c2)[C@H](c2ccccc2)[C@H]1c1ccccc1` (relative stereo) [Example 46], the figures for the IC50 (at gastrin receptor (setting [2]); in assay [1]; on brain CCK receptor (setting [3])) were 0.21 µM, 1.2 µM and 0.042 µM, respectively.
`COc1ccccc1C1C(c2ccccc2)C(=O)NN1C(=O)Nc1ccc(Br)cc1` (stereo not drawn) [Example 115]: the results for the IC50 on gastrin receptor (setting [2]) and at brain CCK receptor (setting [3]) were 0.32 µM and 0.15 µM, respectively. In assay [1], the inhibition at 10 µM was determined as 53%.
Regarding `O=C1NN(C(=O)Nc2ccc(Br)cc2)C(c2ccccc2)C1c1ccccc1Cl` (stereo not drawn) [Example 122], the values for the half-inhibitory concentration (IC50) (at gastrin receptor (setting [2]); in assay [1]; on brain CCK receptor (setting [3])) were 0.22 µM, 8.6 µM and 0.015 µM, respectively.
On to `O=C1NN(C(=O)Nc2ccc3ncccc3c2)[C@@H](c2ccccc2)[C@@H]1c1ccccc1` (relative stereo) [Example 93], for which the IC50 at gastrin receptor (setting [2]) came out at 0.66 µM; at brain CCK receptor (setting [3]) it was 0.29 µM. For the same compound, the inhibition at 10 µM in assay [1] is 75%.
Turning to `O=C1NN(C(=O)Nc2ccc(Br)cc2)C(c2cccnc2)C1c1ccccc1` (stereo not drawn) [Example 135], the IC50 on gastrin receptor (setting [2]) worked out at 1.7 µM; on brain CCK receptor (setting [3]) it was 0.14 µM. For the same compound, the inhibition at 10 µM in assay [1] came to 18%.
Take `CC(C)c1ccc(NC(=O)N2NC(=O)C(c3ccccc3)C2c2ccccc2Cl)cc1` (stereo not drawn) [Example 121]: the IC50 at gastrin receptor (setting [2]) was 0.12 µM; at brain CCK receptor (setting [3]), 0.014 µM. Further, the inhibition at 10 µM in assay [1] was 26%.
`O=C1NN(C(=O)NCCc2ccccc2Cl)[C@@H](c2ccccc2)[C@@H]1c1ccccc1` (relative stereo) [Example 106]: the figures for the IC50 on gastrin receptor (setting [2]) and on brain CCK receptor (setting [3]) were 0.87 µM and 0.19 µM, respectively. In addition, in assay [1], the inhibition at 10 µM was 78%.
Turning to `O=C1NN(C(=O)Nc2ccc(Br)cc2)[C@@H](c2ccccc2)[C@@H]1c1ccccc1` (relative stereo) [Example 20], the values for the IC50 (on gastrin receptor (setting [2]); in assay [1]; at brain CCK receptor (setting [3])) were 0.49 µM, 11.6 µM and 0.031 µM, respectively.
As for `CSc1ccc(NC(=O)N2NC(=O)[C@@H](c3ccccc3)[C@@H]2c2ccccc2)cc1` (relative stereo) [Example 38], the figures for the half-inhibitory concentration (IC50) at gastrin receptor (setting [2]) and on brain CCK receptor (setting [3]) were 0.24 µM and 0.056 µM, respectively. In assay [1], the inhibition at 10 µM is 53%.
The corresponding values for `CC(C)c1ccc(NC(=O)N2NC(=O)[C@@H](c3ccccc3)[C@@H]2c2ccccc2)cc1` (relative stereo) [Example 29] are 0.26 µM, 0.025 µM and 47%.
As for `O=C1NN(C(=O)Nc2ccc(C(F)(F)F)cc2)[C@@H](c2ccccc2)[C@@H]1c1ccccc1` (relative stereo) [Example 16], the IC50 stood at 0.42 µM at gastrin receptor (setting [2]) and 0.044 µM at brain CCK receptor (setting [3]). Further, in assay [1], the inhibition at 10 µM is 62%.
As to `O=C1NN(C(=O)Nc2cc(C(F)(F)F)cc(C(F)(F)F)c2)[C@H](c2ccccc2)[C@H]1c1ccccc1` (relative stereo) [Example 58], the inhibition at 10 µM in assay [1] came out at 85%. Besides, the inhibition at 1 µM at brain CCK receptor stood at 10%.
For `O=C1NN(C(=O)Nc2cccc(Cl)c2Cl)[C@H](c2ccccc2)[C@H]1c1ccccc1` (relative stereo) [Example 54], the inhibition at 10 µM in assay [1] was found to be 53%. Also, the IC50 at brain CCK receptor (setting [3]) came out at 1.15 µM.
For `O=C1NN(C(=O)c2ccc(C(F)(F)F)cc2)[C@H](c2ccccc2)[C@H]1c1ccccc1` (relative stereo) [Example 74], the inhibition at 10 µM in assay [1] came out at 15%; on brain CCK receptor it was 23%.
Take `CCCCC1C(c2ccccc2)C(=O)NN1C(=O)Nc1ccc(C(F)(F)F)cc1` (stereo not drawn) [Example 71]: the inhibition at 10 µM in assay [1] was 39%. Further, at brain CCK receptor (setting [3]), the IC50 was found to be 1.2 µM.
The corresponding values for `O=C1NN(C(=O)Nc2ccc(Cl)c([N+](=O)[O-])c2)[C@H](c2ccccc2)[C@H]1c1ccccc1` (relative stereo) [Example 48] are 98% and 0.08 µM.
In the same order, the values of `O=C1NN(C(=O)NCc2cccc(Cl)c2)[C@@H](c2ccccc2)[C@@H]1c1ccccc1` (relative stereo) [Example 99] are 86% and 3.3 µM.
The corresponding values for `O=C1NN(C(=O)Nc2ccc(Cl)cc2Cl)[C@H](c2ccccc2)[C@H]1c1ccccc1` (relative stereo) [Example 55] are 47% and 0.6 µM.
As to `CCOC(=O)c1ccc(NC(=O)N2NC(=O)[C@@H](c3ccccc3)[C@@H]2c2ccccc2)cc1` (relative stereo) [Example 22], the inhibition at 10 µM in assay [1] stood at 27%. Besides, the inhibition at 1 µM on brain CCK receptor came out at 42%.
`O=C1NN(C(=O)Oc2ccc([N+](=O)[O-])cc2)[C@@H](c2ccccc2)[C@@H]1c1ccccc1` (relative stereo) [Example 80]: in assay [1], the inhibition at 10 µM was found to be 9%. Further, on brain CCK receptor (setting [3]), the IC50 came out at 5.2 µM.
In the same order, the values of `CC(C)Oc1cccc(NC(=O)N2NC(=O)[C@H](c3ccccc3)[C@H]2c2ccccc2)c1` (relative stereo) [Example 43] are 24% and 0.23 µM.
The corresponding values for `O=C1NN(C(=O)Nc2ccc(I)cc2)[C@@H](c2ccccc2)[C@@H]1c1ccccc1` (relative stereo) [Example 21] are 77% and 0.057 µM.
Take `CC(C)C1C(c2ccccc2)C(=O)NN1C(=O)Nc1ccc(Br)cc1` (stereo not drawn) [Example 73]: the figures for the inhibition at 10 µM (in assay [1]; on brain CCK receptor) were 20% and 16%, respectively.
